# Results from publication PMC6273799, “The Interference of Selected Cytotoxic Alkaloids with the Cytoskeleton: An Insight into Their Modes of Action” (Molecules, 2016).
# Like-named read-outs stand apart in the source and are kept apart here.
# What was measured:
# Hela cells [1] = assay: MTT cytotoxicity assay, Hela; format: cell-based, human; settings: 48 h, mean ± SD
# Method: (§1) The anti-proliferative effects of alkaloids were assessed using the MTT assay, as previously described. In brief, 1 × 10^4 cells were seeded in 96-well-plates and incubated with serial dilutions of alkaloids for 48 h (Hela, U2OS) and 72 h (MCF-7). MTT solution was then added and incubated for 2 h. After the addition of DMSO, the plate was read at 570 nm using the Tecan infinite M200 Pro (Tecan, Crailsheim, Germany).
# (§2) All experiments were performed at least three times. Data are presented as the mean ± standard deviation. Statistical comparison between controls and different treatments were performed by an unpaired Student’s t-test. Significance was considered at p < 0.05.
# [2] = system: microtubules in U2OS cells; assay: Imaging of microtubule network in α-tubulin-GFP U2OS cells; format: cell-based, human
# Method: α-Tubulin-GFP U2OS cells (1 × 10^5) were seeded in 24-well plates and grown for 24 h. […] The images were analyzed using BZ-II Analyzer software (version 2.1, Keyence, Neu-Isenburg, Germany).
# [3] = system: actin filaments in Hela cells; assay: Imaging of actin filaments in Hela cells (actin-RFP, immunofluorescence); format: cell-based, human; settings: high concentration (IC80)
# Method: (§3) Then, cells were fixed in 4% paraformaldehyde at 4 °C for 20 min and permeabilized by 0.3% (v/v) Triton X-100 for 10 min. Nonspecific binding sites on the coverslips were blocked by incubating them with 5% FBS for 1 h. To stain the microtubules, cells were firstly incubated with 1:100 mouse anti-α-tubulin monoclonal IgG for 1 h and then with 1:200 goat anti-mouse […] for 1 h. Cells were then incubated with […] Atto 390 phalloidin for 45 min to stain the actin filaments and 20 μg/mL propidium iodide for 30 min to stain the cell nucleus/chromosomes. After washing steps, the coverslips were mounted by mowiol. Microtubules, actin filaments and cell nucleus/chromosomes were observed and analyzed using the Keyence BZ-9000 microscope as described before.
# Hela cells (2 × 10^4) were seeded in 24-well plates and mixed with CellLight® Actin-RFP BacMam 2.0, which is a fusion construct of human actin and TagRFP, providing an accurate and specific targeting to cellular actin filaments. After 16 h of incubation, 200 μL of different concentrations of alkaloids (IC80, IC50) were added into each well, and the cells were analyzed as described above (Section 4.4).
# Hela cells [4] = assay: Cell cycle analysis by flow cytometry (propidium iodide); format: cell-based, human
# Method: Cell cycle analysis was carried out as established in our laboratory. Hela cells (5 × 10^5) were seeded in 6-well plates and treated with different concentrations of alkaloids for 24 h. Cells were then collected, centrifuged and fixed in 70% ice-cold ethanol for at least 8 h. After the washing steps, cells were treated with 0.2 mg/mL RNase A for 30 min at 37 °C and then stained with 0.1 mg/mL propidium iodide. Samples were analyzed using a FACScan flow cytometer (Becton Dickinson, Heidelberg, Germany). Data were analyzed using Cell Quest™ Pro software (Becton Dickinson) and Microsoft Excel 2013 (Microsoft Corporation, Redmond, WA, USA).
# MCF-7 cells = assay: MTT cytotoxicity assay, MCF-7; format: cell-based, human; settings: mean ± SD
# Method: as §1, §2
# [5] = system: microtubules in Hela cells; assay: Immunofluorescence staining of microtubules and spindles in Hela cells; format: cell-based, human; settings: for effect on mitotic spindles: Hela metaphase cells, IC50, 24 h; for effect on interphase cellular microtubules: Hela, immunofluorescence, IC80
# Method: as §3
# [6] = molecular target: T1, tubulin plus microtubule-associated proteins (MAPs) from porcine brains (Sus scrofa, UniProt P02550+P02554); assay: In vitro tubulin polymerization assay (light scattering at 360 nm); format: biochemical; settings: for IC50: 5.6 mg/mL tubulin-MAPs, 37 °C, 40 min, read-out: IC50 inhibition of tubulin polymerization in vitro; for effect on tubulin polymerization in vitro: tubulin-MAPs
# T1 construct: prepared from porcine brains (freshly obtained from a local slaughter house) by two cycles of polymerization and depolymerization; from tissue; host or cells: porcine brain
# Method: Tubulin plus microtubule-associated proteins (MAPs) were prepared from porcine brains (freshly obtained from a local slaughter house) by two cycles of polymerization and depolymerization according to a standard protocol. […] The rate and extent of the polymerization reaction were monitored by light scattering at 360 nm using Tecan infinite M200 Pro.
# as §2
# U2OS cells = assay: MTT cytotoxicity assay, U2OS; format: cell-based, human; settings: 48 h, mean ± SD
# Method: as §1, §2
# [7] = system: Hela, MCF-7 and U2OS cells; assay: MTT cytotoxicity, summary over three cell lines; format: cell-based; settings: Homo sapiens, MCF-7, U2OS
# Method: as §1, §2
# [8] = U2OS α-tubulin-GFP, IC80 and IC50, 2-48 h
# [9] = read-out: IC50 values, range over three cell lines
# [10] = read-out: IC50 values, range over all three cell lines
# T1 sequence (P02550 whole entry): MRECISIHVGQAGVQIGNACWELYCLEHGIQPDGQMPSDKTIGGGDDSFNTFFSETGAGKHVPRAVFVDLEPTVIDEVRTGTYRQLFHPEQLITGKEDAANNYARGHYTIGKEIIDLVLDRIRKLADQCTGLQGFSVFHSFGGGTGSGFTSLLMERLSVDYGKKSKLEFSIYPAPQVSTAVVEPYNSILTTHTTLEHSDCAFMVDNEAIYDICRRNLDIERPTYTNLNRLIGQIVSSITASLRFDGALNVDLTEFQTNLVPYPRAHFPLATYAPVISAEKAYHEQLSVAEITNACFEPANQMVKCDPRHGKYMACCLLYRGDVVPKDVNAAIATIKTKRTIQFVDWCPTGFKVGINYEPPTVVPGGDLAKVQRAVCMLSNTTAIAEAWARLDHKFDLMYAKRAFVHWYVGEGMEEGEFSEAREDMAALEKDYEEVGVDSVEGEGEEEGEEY
# T1 sequence (P02554 whole entry): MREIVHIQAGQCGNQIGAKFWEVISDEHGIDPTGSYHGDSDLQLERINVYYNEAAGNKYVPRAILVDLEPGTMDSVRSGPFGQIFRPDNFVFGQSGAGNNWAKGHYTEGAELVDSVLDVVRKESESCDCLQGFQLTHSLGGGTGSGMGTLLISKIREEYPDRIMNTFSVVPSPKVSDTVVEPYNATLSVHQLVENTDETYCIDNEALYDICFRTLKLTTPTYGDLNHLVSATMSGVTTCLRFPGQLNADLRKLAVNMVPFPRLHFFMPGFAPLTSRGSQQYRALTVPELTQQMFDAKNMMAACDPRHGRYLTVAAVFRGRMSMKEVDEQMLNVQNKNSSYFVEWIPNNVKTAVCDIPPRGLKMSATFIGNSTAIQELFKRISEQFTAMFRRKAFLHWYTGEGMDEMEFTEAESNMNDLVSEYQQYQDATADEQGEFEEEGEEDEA
IC50 [6] [µM],Compound,"IC50 (Hela cells [1]; Homo sapiens, HeLa) [nM]","effect on microtubule network [2, 8]",effect on actin filaments [3],"IC50 (MCF-7 cells; Homo sapiens, MCF7, 72 h) [µM]",effect on mitotic spindles [5],"IC50 (U2OS cells; Homo sapiens, U2OS) [µM]","IC50 [7, 9] [nM]",IC50 ([6]; mean ± SD) [µM],effect on cell cycle (Hela cells [4]; 24 h),also measured
> 1000,"CN1CCc2cc3c(cc2C(=O)Cc2ccc4c(c2C1)OCO4)OCO3 [Protopine, protopine]",27500 ± 11800,notably enhanced the assembly of the microtubule network,No apparent changes of actin filaments,67.3 ± 9.06,thickened spindle arrays,62.4 ± 9.9,–,–,–,"G2/M population (Hela cells [4]; 250 μM, 24 h): 54.35% ± 11.26%; G2/M population (Hela cells [4]; 250.9 μM): 54.35% ± 11.26%; effect on tubulin polymerization in vitro [6]: did not affect tubulin polymerization"
–,"CN1Cc2c(ccc3c2OCO3)[C@@H]2[C@H]1c1cc3c(cc1C[C@@H]2O)OCO3 [Chelidonine, chelidonine]",1130 ± 370,–,significant reduction of actin filament mass,3.85 ± 0.1,multipolar spindles with chromosome congression failure,3.86 ± 1.99,920 to 7630,34.5 ± 9.47,–,"effect on microtubule network [2]: significantly decreased cellular microtubule mass; G2/M population (Hela cells [4]; 2.5 μM, 24 h): 88.27% ± 0.99%"
–,"COc1cc2c(c(OC)c1OC)-c1ccc(OC)c(=O)cc1[C@@H](NC(C)=O)CC2 [Colchicine, colchicine]",–,reduced the mass of the microtubule network,No apparent changes of actin filaments,–,completely depolymerized spindle,–,–,–,–,"G2/M population (Hela cells [4]; 0.1 μM, 24 h): 89.66% ± 2.04%"
> 1000,"COc1ccc2c(c1OC)C(=O)O[C@@H]2[C@H]1c2c(cc3c(c2OC)OCO3)CCN1C [Noscapine, noscapine]",16800 ± 9790,remarkably depolymerized the microtubule network and reduced its mass,No apparent changes of actin filaments,35.2 ± 8.18,multipolar spindles with chromosome congression failure,60.9 ± 12.2,–,–,–,"G2/M population (Hela cells [4]; 80 μM, 24 h): 73.42% ± 8.31%"
–,"CC(=O)O[C@H]1C(=O)[C@@]2(C)[C@H]([C@H](OC(=O)c3ccccc3)[C@]3(O)C[C@H](OC(=O)[C@H](O)[C@@H](NC(=O)c4ccccc4)c4ccccc4)C(C)=C1C3(C)C)[C@]1(OC(C)=O)CO[C@@H]1C[C@@H]2O [Paclitaxel, paclitaxel]",0.08 ± 0.1,promoted the polymerization of microtubules,No apparent changes of actin filaments,1.05 ± 0.43,"aberrant, but still bipolar spindles",0.23 ± 0.1,–,38.2 ± 3.33,–,"G2/M population (Hela cells [4]; 0.1 μM, 24 h): 80.37% ± 5.36%"
–,"CC[C@]1(O)C[C@@H]2CN(CCc3c([nH]c4ccccc34)[C@@](C(=O)OC)(c3cc4c(cc3OC)N(C)[C@H]3[C@@](O)(C(=O)OC)[C@H](OC(C)=O)[C@]5(CC)C=CCN6CC[C@]43[C@@H]65)C2)C1 [Vinblastine, vinblastine]",0.02 ± 0.01,microtubules were extensively depolymerized and tubulin paracrystals were formed,No apparent changes of actin filaments,7e-05 ± 5e-05,depolymerized bipolar spindles,0.0001 ± 5e-05,–,1.42 ± 0.05,–,"G2/M population (Hela cells [4]; 10 nM, 24 h): 78.04% ± 14.78%; IC50 [7, 10]: 0.02 to 0.1 nM"
–,"C/C1=C/C(=O)O[C@@H]2C[C@@H](CC[C@H](C)/C=C\CC1)O[C@@](O)([C@@H]1CSC(=O)N1)C2 [Latrunculin B, latrunculin B]",–,immediately changed the cell morphology,extensive depolymerization of the actin network,–,–,–,–,–,–,"IC50 (Hela cells [1]): 7130 ± 610 nM; G2/M population (Hela cells [4]; 7 μM, 24 h): 80.05% ± 11.89%; IC50 (MCF-7 cells; 72 h): 36.8 ± 2.25 µM; IC50 (U2OS cells): 5.48 ± 0.68 µM"
–,"COc1ccc2c(c[n+](C)c3c4cc5c(cc4ccc23)OCO5)c1OC [Chelerythrine, chelerythrine]",3850 ± 2100,displayed similar effects as sanguinarine,significant reduction of actin filament mass,7.63 ± 3.43,"abnormal, but still bipolar spindles",2.88 ± 0.76,920 to 7630,206 ± 4.2,did not change the proportion of mitotic cells,effect on interphase cellular microtubules [5]: significantly reduced the mass of microtubules
–,"C[n+]1cc2c3c(ccc2c2ccc4cc5c(cc4c21)OCO5)OCO3 [Sanguinarine, sanguinarine]",1030 ± 40,–,significant reduction of actin filament mass,1.24 ± 0.21,had no impact on mitotic spindles,0.92 ± 0.53,920 to 7630,48.4 ± 3.73,did not change the proportion of mitotic cells,effect on microtubule network [2]: disrupted microtubule distribution and altered their morphology; effect on interphase cellular microtubules [5]: significantly reduced the mass of microtubules

Compound,IC50 [6] [µM],"IC50 (Hela cells [1]; Homo sapiens, HeLa) [nM]","effect on microtubule network [2, 8]",effect on actin filaments [3],"IC50 (MCF-7 cells; Homo sapiens, MCF7, 72 h) [µM]",effect on mitotic spindles [5],"IC50 (U2OS cells; Homo sapiens, U2OS) [µM]","IC50 [7, 9] [nM]",IC50 ([6]; mean ± SD) [µM],effect on cell cycle (Hela cells [4]; 24 h),also measured
"COC(=O)C[C@](O)(CCCC(C)(C)O)C(=O)O[C@@H]1C(OC)=C[C@]23CCCN2CCc2cc4c(cc2[C@H]13)OCO4 [Homoharringtonine, homoharringtonine]",> 1000,9.03 ± 0.38,No obvious changes on the cellular microtubule network,No apparent changes of actin filaments,0.00087 ± 0.00045,did not affect mitotic spindles,0.003 ± 0.00167,–,–,had no impact on the cell cycle,"IC50 [7, 10]: 0.87 to 9.03 nM; effect on tubulin polymerization in vitro [6]: did not affect tubulin polymerization"
